Legend:
[1] = test system: CB CD34+ cells (cord blood derived CD34+ HSCs); test: Co-culture of cord blood CD34+ cells with MPCs and small molecules, 4-colour flow cytometric analysis; assay type: cell-based, human; details: for expansion of CD34+ cells with the primitive HSC phenotype CD34+CD45RA− CD90+CD49f+: day 10, presence of MPCs and HDACi versus absence of MPCs or a HDACi (FIG. 9)
Protocol: • Cells: CB CD34+ (Stem Cell Technologies) • Medium: StemSpan SFEM (StemCell Technologies) supplemented with: • Human low density lipoprotein (Stem Cell Technologies) 10 μg/ml • Growth Factors (‘SFT’): • rHu-SCF 100 ng/ml • rHu-FLT3Ligand 100 ng/ml • rHu-TPO 50 ng/ml • (All recombinant cytokines are from R&D Systems) • Small Molecules: • SR1 (500 nM); UM171 (35 nM); Trichostatin A (TSA, 50 nM); Valproic Acid (VPA, 500 μM) (all from Stem Cell Technologies) • Assay conditions: • Day −1 MPC (MCBCC006) plated at 50,000/well in 2×24-well plates in Alpha-MEM/10% FBS • Day 0 10,000 CD34+ cells per well plated into each well of two 24 well plates. MPC containing wells were first washed to remove FBS medium. • The remaining CD34+ cells were cultured at the same concentration in a T-25 flask in StemSpan/SFT/SR-1+ UM171. This was to provide bulk cells for set up of flow cytometry analysis and to define electronic compensation settings for multicolour analysis. • Day 3 All groups were fed by removing 1.5 mL of media and replacing with 2.0 mL of fresh media+additives. • Day 5 Flow cytometric analysis: 1.5 mL of culture media was harvested from each well. For the suspension (No MPG) groups this was achieved by first aspirating the medium up and down to completely suspend the CD34+ cells before removing 1.5 mL of the suspension. For the +MPG groups, the CD34+ cells were resuspended in such a way that the MPC feeder layer was left intact. After the cells were removed from each well, they were replaced with 2.0 mL of fresh media+additives. A cell count was performed on all wells. This was required to determine not only the incidence of populations identified by FACS analysis, but also their absolute number. • Day 8 All groups were fed by removing 2.0 mL of media and replacing with 2.0 mL of fresh media and additives. • Day 10 Flow cytometric analysis: The complete content of each well was harvested. For the suspension (No MPG) groups this was achieved by first aspirating the medium up and down to completely suspend the CD34+ cells before removing the suspension. For the +MPG groups, the CD34+ cells in suspension were first harvested (as described above for Day 5). CD34+ cells attached to the MPC layer were then detached by a brief exposure (5 mins) to 0.05% trypsin-EDTA in PBS at 37° C., the trypsin quenched in 10% FBS and the detached cells pooled with the previously harvested suspension fraction to represent the Day 10 harvest.
A 4-colour flow cytometric analysis was performed to allow identification and quantitation of CD34+ cells and relevant subpopulations including candidate hematopoietic stem cells (HSC) according to the phenotype CD34+CD45RA− CD90+CD49f+ described for cord blood (Notta et al., (2011) Science 333: 218-221). All antibody conjugates were used at concentrations recommended by the manufacturers.
As noted above, the bulk culture of CD34+ cells in StemSpan/SFT/SR-1+ UM171 was used at both Day 5 and Day 10 to establish settings for flow cytometric analysis and to establish compensation settings. Stains with the following antibody/antibody combinations were performed:
Cord blood derived CD34+ HSCs were cultured in the presence and absence of immunoselected MPCs in the presence of: […]

[2] = test system: CD34+CD38-CD45RA− CD90+CD49f+ cells; test: Colony-forming unit (CFU) assay in MethoCult H4435 Enriched of FACS-isolated cells; assay type: cell-based, human; details: cells isolated by FACS after 10 days in co-culture with MPCs, SFV and VPA; colonies scored on day 14
Protocol: FIG. 11: CD34+CD38-CD45RA− CD90+CD49f+ cells isolated by FACS were cultured in MethoCult™ H4435 Enriched (Stem cell Technologies), and tested for colony forming efficiency on day 14 of culture. Overall colony forming efficiency was 0.42%.
CD34+CD38-CD45RA− CD90+CD49f+ cells were isolated by FACS after 10 days in co-culture with MPCs, SFV and VPA. These isolated cells were then cultured in MethoCult™ H4435 Enriched (Stem cell Technologies), which is a complete methylcellulose-based medium containing IL-3, IL-6, G-CSF, GM-CSF, SCF and EPO and useful for growth and enumeration of hematopoietic progenitor cells in colony-forming unit (CFU) assays). Colonies were scored on day 14 of culture and tested for colony forming efficiency. […] Overall colony forming efficiency was 0.42%.

SMILES | expansion of CD34+ cells with the primitive HSC phenotype CD34+CD45RA− CD90+CD49f+ [1] | number of CD34+CD45RA− CD90+CD49f+ cells ([1]; after 10 days in co-culture with MPCs, SFV and VPA (500 μM), start about 500 primitive cells) | number of CD34+ cells ([1]; after 10 days in co-culture with MPCs, SFV and VPA (500 μM), start about 10,000 CD34+ cells) | increase in the number of CD34+CD90+CD49f+ cells ([1]; over a 10 day period, co-culture with MPCs, SFV and VPA) [fold] | overall colony forming efficiency [2] [%]
CC(/C=C/C(=O)NO)=C\[C@@H](C)C(=O)c1ccc(N(C)C)cc1 [TSA, Trichostatin A] | substantially greater expansion |  |  |  | 
CCCC(CCC)C(=O)O [VPA, Valproic Acid] | substantially greater expansion | about 22,000 cells | about 800,000 cells | ~44 | 0.42

— patent US20210388319A1, “EXPANSION OF HEMATOPOIETIC STEM CELLS” (Mesoblast International Sarl, priority 2018, published 2021)
